# Laboratory results published in patent EP4792811A1, “S1PR4 REGULATOR COMPOUND FOR MUSCLE DISEASE TREATMENT AND APPLICATION THEREOF” (Shengyuan Zetong (Shanghai) Pharmaceutical Co., Ltd, priority 2023, dated 2025).
# How the values were obtained:
# hS1P1 = molecular target: T1, hS1P1 (Homo sapiens, UniProt P21453); assay: Tango β-arrestin recruitment assay, Tango-hS1P1-CHO; type: cell-based; settings: selectivity table; Tango-S1PR1-CHO-K1 cells
# T1 construct: expressed in transfected cells; host or cells: CHO-K1
# T1 sequence (P21453 whole entry): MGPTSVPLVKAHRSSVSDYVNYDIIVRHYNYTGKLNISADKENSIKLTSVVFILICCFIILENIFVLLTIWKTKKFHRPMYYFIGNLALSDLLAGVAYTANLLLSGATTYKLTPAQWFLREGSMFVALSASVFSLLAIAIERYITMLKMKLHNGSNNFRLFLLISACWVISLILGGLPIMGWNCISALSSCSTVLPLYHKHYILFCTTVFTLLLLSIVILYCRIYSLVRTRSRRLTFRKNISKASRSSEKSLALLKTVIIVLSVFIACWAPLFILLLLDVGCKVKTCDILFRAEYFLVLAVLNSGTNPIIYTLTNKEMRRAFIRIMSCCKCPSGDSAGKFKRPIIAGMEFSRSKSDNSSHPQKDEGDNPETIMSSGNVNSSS
# Source text: (§1) The Tango assay detects ligand-dependent GPCR activity through the interaction between β-arrestin and GPCRs. […] The NTEV fragment and the tetracycline transactivator (tTA), an artificial transcription factor, are fused at the C-terminus of the GPCR, while the CTEV fragment is fused to human β-arrestin 2. To enhance the stability of the interaction between GPCR and β-arrestin, a short sequence from the C-terminus of the human arginine vasopressin receptor 2 (V2 tail) is inserted between the GPCR and NTEV. The V2 tail contains multiple GRK phosphorylation sites, which strengthen β-arrestin binding upon phosphorylation. The CTEV fragment carries the stabile point mutation S219P and is truncated at residue 221 to remove the autoinhibitory C-terminal tail. Meanwhile, β-arrestin 2 is truncated to lack the entire C-terminal tail (residues 383-410 deleted). This truncation confers robust stimulus-dependent receptor desensitization, thereby improving detection sensitivity compared with wild-type β-arrestin 2. The UAS reporter construct consists of upstream activating sequence (UAS) elements, a minimal CMV promoter, and a tTA-dependent luciferase reporter gene. Therefore, constructing Tango cells requires the co-transfection of the above three plasmids into host cells. Upon GPCR activation and β-arrestin recruitment, the TEV enzyme at the β-arrestin terminus cleaves tTA from the GPCR C-terminus. The released tTA initiates tTA-dependent luciferase transcription, and compound activity is ultimately determined by measuring luminescence intensity.
# (§2) • 1) Tango cell line from was digested from the culture dish respectively. After cell counting, the cells were plated at a density of 10,000 cells per well with […] into a white opaque 96-well plate (add 60 µL D'Hanks to the surrounding wells), and incubated overnight (20 h) in a 5% CO2 incubator at 37°C. The cell density will reach approximately 90% the next day. • 2) After 20 h, 30 µL of serially diluted compound solution was added to each well. The control group was supplemented with 30 µL F12K complete medium. Each group had three replicate wells. • 3) Samples were collected after 20 h of drug treatment.
# (§3) (All compounds were tested at a final concentration of 45 µM, with 9 serial dilutions at 5-fold intervals. 1 µM BAF-312 was used as the positive control for S1PR1, and 25 µM BAF-312 was used as the positive control for S1PR4.)
# (§4) ^a β-arrestin recruitment activity based on Tango-S1PR1-CHO-K1 and Tango-S1PR4-CHO-K1 cells, expressed as mean EC50 values ± SD. ^b FLIPR assays were performed using S1PR2-CHO and S1PR5-CHO cell lines, expressed as mean EC50 values ± SD. ^c β-arrestin recruitment activity based on PathHunter CHO-K1-S1PR3 cells, expressed as mean EC50 values ± SD. Data are the mean of at least two independent determinations, reported as mean ± SD (standard deviation).
# hS1P4 = molecular target: T2, hS1P4 (Homo sapiens, UniProt O95977); assay: Tango β-arrestin recruitment assay, Tango-hS1P4-CHO; type: cell-based; settings: selectivity table; Tango-S1PR4-CHO-K1 cells
# T2 construct: expressed in transfected cells; host or cells: CHO-K1
# T2 sequence (O95977 1-384): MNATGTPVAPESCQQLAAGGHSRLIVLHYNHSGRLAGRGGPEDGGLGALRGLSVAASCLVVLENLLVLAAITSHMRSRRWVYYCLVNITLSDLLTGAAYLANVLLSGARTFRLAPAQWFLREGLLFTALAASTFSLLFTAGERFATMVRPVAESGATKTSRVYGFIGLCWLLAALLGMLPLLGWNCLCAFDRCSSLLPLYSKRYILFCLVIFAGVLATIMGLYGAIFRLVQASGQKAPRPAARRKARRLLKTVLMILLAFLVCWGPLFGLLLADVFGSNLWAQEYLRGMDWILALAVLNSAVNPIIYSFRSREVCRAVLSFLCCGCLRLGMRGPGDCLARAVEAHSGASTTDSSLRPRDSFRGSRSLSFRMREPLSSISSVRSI
# Source text: as §1, §2, §3, §4
# S1PR5 = molecular target: T3, S1PR5 (Homo sapiens, UniProt Q9H228); assay: FLIPR assay, S1PR5-CHO cell line; type: cell-based
# T3 construct: expressed in transfected cells; host or cells: CHO
# T3 sequence (Q9H228 whole entry, species assumed): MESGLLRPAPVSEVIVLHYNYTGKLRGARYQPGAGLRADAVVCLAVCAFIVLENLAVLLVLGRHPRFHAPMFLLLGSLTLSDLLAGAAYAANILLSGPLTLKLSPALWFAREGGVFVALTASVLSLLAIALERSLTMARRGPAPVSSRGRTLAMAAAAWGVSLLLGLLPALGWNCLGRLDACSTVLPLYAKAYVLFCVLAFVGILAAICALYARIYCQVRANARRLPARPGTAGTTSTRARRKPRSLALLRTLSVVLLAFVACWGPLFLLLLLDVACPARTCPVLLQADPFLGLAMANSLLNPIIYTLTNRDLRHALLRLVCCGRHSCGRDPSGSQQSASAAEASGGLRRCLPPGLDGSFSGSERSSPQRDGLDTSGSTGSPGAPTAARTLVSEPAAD
# Protocol: as §4
# S1PR4 = molecular target: T4, S1PR4 (Homo sapiens, UniProt O95977); assay: S1PR4 internalization function test in S1PR4-293T cells; type: cell-based; settings: 1 µM, 37 °C, 1.5 hours; detected immediately, or at 5 hours or 20 hours after treatment
# T4 construct: expressed in transfected cells; host or cells: 293T
# T4 sequence (O95977 1-384): T2 sequence (O95977 1-384)
# Protocol: Therefore, the recovery degree of S1PR4 after internalization caused by Compound 30 was evaluated, and the recovery effect following receptor internalization caused by Compound 30 was assessed in cells with high S1PR4 expression.
# [1] = tested on: Duchenne muscular dystrophy model mice; assay: In vivo pharmacodynamic test in Duchenne muscular dystrophy model mice (Compound 30); settings: for serum creatine kinase level: after treatment
# Protocol: Experimental Animals: A total of 35 Duchenne muscular dystrophy model mice were divided into 6 groups as shown below.
# Intragastric administration was initiated from Day 0. Body weight was measured daily during the experiment to adjust the drug dosage. Grip strength tests were performed every 2 days to observe changes in the mice's grip strength until the experiment concluded on Day 21. Changes in the limb grip strength, serum creatine kinase content, and muscle fibrosis/inflammation in the mice were detected as indicators for evaluating drug efficacy.
# The mouse was placed horizontally on the grip test board. The mouse's tail was held and pulled gently in the opposite direction without using excessive force. The tail was gradually pulled until the mouse released the grip force sensor. The maximum value recorded by the grip force sensor is the grip strength. The test was repeated for 3 times and the average value was taken.
# After the completion of administration, blood was collected via the orbital sinus, allowed to stand for 30 minutes, centrifuged at 3000 rpm at 4°C for 15 minutes, and serum was extracted, stored frozen at -20°C, and detected in accordance with the kit instructions.
# After the experiment, the tibialis anterior, extensor digitorum longus, and diaphragm of the mice were harvested, fixed, sectioned, and subjected to HE staining and Sirius Red staining to observe the degree of muscle fibrosis. The slice was subjected to immunofluorescence staining with F4/80 to observe the level of muscle inflammation.
# [2] = 0.3 mg/kg intragastric once daily
# [3] = 0.3 mg/kg intragastric once daily, compared with the model group
# [4] = 1 mg/kg intragastric once daily
# [5] = 3 mg/kg intragastric once daily
compound,measurement,setting,value
CCc1cc(/C(C)=N/OCc2ccc(-c3ccccc3)c(C)c2)ccc1CN1CC[C@H](C(=O)O)C1 [Compound 30],Emax,hS1P1,102%
same,Emax,hS1P4,104%
same,agonist activity on S1PR5,S1PR5; compared with the endogenous ligand S1P,no agonist activity
same,Emax,"S1PR5; selectivity table, FLIPR, S1PR5-CHO",19.5%
same,S1PR4 internalization (expression of S1PR4 receptor on the cell surface),S1PR4,sustained internalization capacity
same,collagen deposition (collagen area ratio),[1]; [2],significantly reduced collagen deposition
same,serum creatine kinase level,[1]; [2],significantly reduced
same,body weight growth trend,[1]; [3],no difference
same,number of centrally nucleated fibers (HE staining),[1]; [3],no significant difference
same,collagen deposition (collagen area ratio),[1]; [4],significantly reduced collagen deposition
same,"macrophage content (F4/80 immunofluorescence, muscle inflammation)",[1]; [4],significantly reduced macrophage content
same,number of centrally nucleated fibers (HE staining),[1]; [4],significantly reduced
same,serum creatine kinase level,[1]; [4],significantly reduced
same,body weight growth trend,"[1]; 1 mg/kg intragastric once daily, compared with the model group",no difference
same,collagen deposition (collagen area ratio),[1]; [5],significantly reduced collagen deposition
same,"macrophage content (F4/80 immunofluorescence, muscle inflammation)",[1]; [5],significantly reduced macrophage content
same,number of centrally nucleated fibers (HE staining),[1]; [5],significantly reduced
same,serum creatine kinase level,[1]; [5],significantly reduced
same,body weight growth trend,"[1]; 3 mg/kg intragastric once daily, compared with the other groups",relatively slow
same,increase in grip strength (ratio of grip strength to body weight),"[1]; 3 mg/kg intragastric once daily, first 14 days",most significant
